# Reference: patent US20260217716A1, “ANDROGEN RECEPTOR MODULATORS AND METHODS FOR THEIR USE” (Capulus Therapeutics, LLC, priority 2022, published 2026)
# Numbering of substitutions follows the chain as printed.
# Legend:
# [1] = Mouse liver microsome stability; format: in vitro ADME; details: Table 6, mouse liver microsomes, 1 μM
# Experimental: (§1) Preincubation mixture 2.5 μL Test Cpd. +75 μL Liver microsomes (human or mouse source) @ 3.33 mg/mL+85 µL of 100 mM potassium phosphate buffer (preincubate for 10 min @ 37° C.). Incubation mixture 62 μL of cofactor (2.85 mM)+Remaining incubation mixture (Incubated for 60 min @ 37° C.). Sample preparation 25 μL incubation mixture+200 μL of acetonitrile containing internal standard+Vortex 5 min @ 1200 rpm+Centrifuge 10 min @ 4000 rpm. Supernatant diluted 2-fold with water and injected on LC-MS/MS.
# Human androgen receptors = molecular target: T1, Human androgen receptors (Homo sapiens, UniProt P10275, T878A); assay: Biochemical AR LBD antagonism (Eurofins AR radioligand binding assay); details: Table 4; read-out: Biochemical AR LBD Antagonism: Average IC50
# T1 construct: Human androgen receptors obtained from human LNCaP cells were used; host or cells: human LNCaP cells
# T1 sequence (P10275 1-920 T878A): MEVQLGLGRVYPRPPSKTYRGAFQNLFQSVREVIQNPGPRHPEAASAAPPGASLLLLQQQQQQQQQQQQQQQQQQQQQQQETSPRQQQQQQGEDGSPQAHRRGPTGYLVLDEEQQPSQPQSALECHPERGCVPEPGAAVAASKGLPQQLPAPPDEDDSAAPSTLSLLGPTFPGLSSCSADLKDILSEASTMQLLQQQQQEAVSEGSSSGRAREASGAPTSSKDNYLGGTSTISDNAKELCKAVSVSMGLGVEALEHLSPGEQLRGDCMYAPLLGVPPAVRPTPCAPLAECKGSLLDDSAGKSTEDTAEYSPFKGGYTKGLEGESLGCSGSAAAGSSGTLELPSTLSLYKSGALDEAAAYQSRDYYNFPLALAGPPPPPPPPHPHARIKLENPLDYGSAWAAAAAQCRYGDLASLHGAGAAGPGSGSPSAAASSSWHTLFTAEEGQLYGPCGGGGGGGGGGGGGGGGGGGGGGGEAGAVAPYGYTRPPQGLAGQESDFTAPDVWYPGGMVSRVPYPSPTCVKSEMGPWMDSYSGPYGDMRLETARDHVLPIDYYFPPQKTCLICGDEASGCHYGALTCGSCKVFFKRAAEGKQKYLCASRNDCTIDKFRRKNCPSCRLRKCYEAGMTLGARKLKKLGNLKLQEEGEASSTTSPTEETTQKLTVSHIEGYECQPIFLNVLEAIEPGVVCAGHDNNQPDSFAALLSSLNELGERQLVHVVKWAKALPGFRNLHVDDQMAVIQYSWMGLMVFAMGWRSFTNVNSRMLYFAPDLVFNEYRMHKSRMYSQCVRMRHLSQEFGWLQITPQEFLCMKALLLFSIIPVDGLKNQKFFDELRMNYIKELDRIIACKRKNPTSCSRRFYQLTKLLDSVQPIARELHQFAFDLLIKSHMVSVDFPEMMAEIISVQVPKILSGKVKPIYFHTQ
# Experimental: Human androgen receptors obtained from human LNCaP cells were used in modified HEPES buffer pH 7.4. A 70 μg‡ aliquot was incubated with 0.5 nM [3H] Methyltrienolone for 20 h at 4° C. Non-specific binding was estimated in the presence of 1 μM testosterone. Receptors were filtered and washed, the filters were then counted to determine [3H] Methyltrienolone specifically bound. Compounds were screened at 10 μM.
# Furthermore, as noted earlier, most clinically relevant AR inhibitors target the ligand binding domain (LBD) of the androgen receptor, and these inhibitors can lose efficacy due to point mutations in the LBD. Given that the AR protein contains multiple sub-domains, targeting other domains is an attractive approach for new inhibitors. […] Therefore, the compounds as described herein may be interacting with other subdomains in the AR protein, namely the N-terminal domain.
# human AR = molecular target: T2, human AR (Homo sapiens, UniProt P10275); assay: Indigo Biosciences AR reporter cell assay (AR inhibition, antagonist mode); format: cell-based; details: Table 2; luciferase reporter cells, 24 hr, EC80 of agonist 5α-dihydro-11-keto testosterone; read-out: AR Inhibition Indigo Cell Based: Avg IC50
# T2 construct: Reporter Cells used in these assays expressed a native receptor (AR)
# T2 sequence (P10275 1-920): T1 sequence (P10275 1-920 T878A) with A878T
# Experimental: The aim of this study was to evaluate compounds 1-12 and the comparative compounds 1-2 for inhibition activities against human AR. Reporter Cells used in these assays expressed a native receptor (AR). The reporter gene, firefly luciferase, is functionally linked to an upstream receptor-specific genetic response element (GRE). Reporter cells were treated with eight concentrations, starting at 50 μM and following with 3.17-fold dilutions. Single treatment concentration was performed (n=1). Assay performance was validated using the reference antagonist hydroxy flutamide. • Step 1: A suspension of reporter cells was prepared in Cell Recovery Medium (CRM). Reporter cells were first supplemented with 2×-EC80 concentration of the reference agonist, 5α-dihydro-11-keto testosterone, then 100 μl of the Reporter Cell suspension was dispensed into wells of a white 96-well assay plate. • Step 2: Test compound master stocks were diluted in DMSO to generate solutions at ‘500×-concentration’ relative to the final treatment concentration and diluted directly into INDIGO's Compound Screening Medium (CSM; containing charcoal-stripped FBS) to generate ‘2×-concentration’ treatment media. This was diluted into the wells to the final concentration. Assay plates were incubated at 37° C., 5% CO2 and ~70% humidity for 24 hr. • Step 3: Following the incubation period, wells were rinsed once with Live Cell Multiplex (LCM) Buffer, then LCM substrate was added. Following incubation at room temperature for 15 min, LCM substrate was discarded and 100 μL/well of luciferase detection reagent was added. Subsequently, fluorescence was measured to determine the relative number of live cells per assay well. RLU values were quantified after a 10 min incubation period at room temperature to determine nuclear receptor activities.
# [2] = Human liver microsome stability; format: in vitro ADME; details: Table 6, human liver microsomes, 1 μM
# Experimental: as §1
Mouse LM: Rem @ 60 min [1],IC50 (Human androgen receptors) [nM],IC50 (human AR) [nM],Human LM: Rem @ 60 min [2],SMILES
+++ (>60.1: “+++”),> 501,51 to 500,+++ (>60.1: “+++”),"Cc1nnc2ccc(N[C@H](C)c3ccc(F)cc3)nn12 [Compound 10, (R)—N-(1-(4-fluorophenyl)ethyl)-3-methyl-[1,2,4]triazolo[4,3-b]pyridazin-6-amine]"
+++ (>60.1: “+++”),> 501,51 to 500,+++ (>60.1: “+++”),C[C@@H](Nc1ccc2nnc(C(F)F)n2n1)c1ccc(F)cc1 [Compound 12]
